Reference: patent US9718809B2, “Bisarylsulfonamides useful in the treatment of inflammation and cancer” (Kancera AB, priority 2011, dated 2017)
pIC50: −log10 of the molar value. Counter-ions that a name gives are not always drawn.

These compounds were tested on F-2,6-P2 in PANC-1 cells (assay: Quantification of F-2,6-P2 (Van Schaftingen coupled enzyme assay) in PANC-1 cells). Details: Homo sapiens; PANC-1 cells; read-out: IC50 based on quantification of F-2,6-P2.
Assay type: cell-based, human
Source text: A method for quantification of F-2,6-P2 has been described by Van Schaftingen et al. (1982) Eur. J. Biochem. 129, 191-5. This sensitive assay is based on the potent activation of pyrophosphate dependent phosphofructokinase-1 (PPi-PFK) from potato tubers by F-2,6-P2. The use of a series of coupled enzymes leads to a consumption of NADH (nicotinamide adenine dinucleotide) that can be followed spectrophotometrically (an updated protocol is available in Van Schaftingen, (1984) Methods of Enzymatic Analysis (Bergmeyer, H. U., ed.), 3rd edn., vol. 6, pp. 335-341, Verlag Chemie, Weinheim). A protocol for measurements in 96-well microtiter plate format is also available (Bruni et al., (1989) Anal. Biochem. 178, 324-6).
The levels of F-2,6-P2 have been determined using the van Shaftingen assay as described in the protocol below, in six different cancer cell lines endogenously expressing varying levels of the different isoforms of PFK-2/BPase-2 (MCF-7, PANC-1, NUGC-3, SW480, SW620 and MIA PaCa-2). All reagents were purchased from commercial sources or prepared in-house.
Cell line B (PANC-1, human pancreatic carcinoma cell line): PANC-1 cells (ATCC-CRL-1469), lot. no. 58564651. Cells were seeded at a concentration of ˜250 000 cells/mL in 100 μL growth medium (˜25 000 cells/well).
Growth medium (cell lines B-F): Dulbecco's Modified Eagle's Medium, DMEM, VWR, LONZ12-604F; 10% FBS, Invitrogen, 10270-106.
Starvation medium (cell lines A-F): DMEM/F12 without phenol red and glucose free, SVA, 991373; 0.25% FBS, Invitrogen, 10270-106.
Induction medium (cell lines A-F): DMEM/F12 without phenol red and glucose free, SVA, 991373; 0.25% FBS, Invitrogen, 10270-106 (same as starvation medium).
Cells were seeded in 96-well Corning Costar tissue culture plates (CLS3595, Sigma-Aldrich) using the concentrations specified above for the different cell lines A-F and incubated over night at 37° C. and 5% CO2. Row A in the plate was left empty and the cell lines added to rows B-H. Next day the growth medium was discarded and replaced with 100 μL starvation medium. The plates were incubated for 18 h at 37° C. and 5% CO2. After 18 h of starvation the cells were induced with 100 μL compound or control solutions. Compounds were either tested in two concentrations (50 μM and 10 μM) or in dose response curves starting from 50 μM. The final DMSO concentration in assay plates was 0.5%. Also a dose response curve of a reference inhibitor was included in row H on each plate. All compounds were tested in duplicate plates. Compounds (in 96 well CLS 3365, Sigma-Aldrich plates) were serial diluted in DMSO from 10 mM compound DMSO stock solutions with Janus (automated liquid handling workstation from PerkinElmer). Five μL were transferred to a Greiner deep well plate (736-0155, VWR) with 495 μL starvation medium. The final start concentration of compounds in the dilution plate was 100 μM, 1% DMSO. For compounds tested as single points, 10 mM compound solutions were diluted five fold in DMSO to 2 mM, followed by the transfer of 5 μL to separate dilution plates with 495 μL starvation medium. The final concentrations of compounds in these dilution plates were 100 or 20 μM, respectively, and final concentration of DMSO was 1%. The plates were incubated at 37° C. and 5% CO2 for 1 h, followed by the addition of 10 μL 20 mM D-glucose in starvation medium. Controls, with and without 1 mM glucose, were included in row B. The final assay volume was 210 μL per well. After 2 h of incubation at 37° C. and 5% CO2, the supernatants were discarded and the cells lysed by the addition of 25 μL 250 mM NaOH. The plates were incubated at 37° C. and 5% CO2 for 5 min followed by an addition of 75 μL MilliQ dH2O. The supernatants were further diluted with 210 μL MilliQ dH2O to a final concentration of 20 mM NaOH. 200 μL were transferred to NUNC 96-well plates (7322661, VWR) and the plates were sealed and stored at −20° C. until analysis. […]

| SMILES | pIC50 |
| --- | --- |
| COC(=O)c1ccc(NS(=O)(=O)c2cccc(Br)c2)cc1O [Example 5, Methyl 4-{[(3-bromophenyl)sulfonyl]amino}-2-hydroxybenzoate] | 4.91 |
| COC(=O)c1ccc(NS(=O)(=O)c2cc3ccccc3o2)cc1O [Example 9, Methyl 4-[(1-benzofuran-2-ylsulfonyl)amino]-2-hydroxybenzoate] | 4.71 |
| COC(=O)c1ccc(NS(=O)(=O)c2cc(C(F)(F)F)oc2C)cc1O [Example 10, Methyl 2-hydroxy-4-({[2-methyl-5-(trifluoromethyl)furan-3-yl]sulfonyl}amino)benzoate] | 5.17 |
| COC(=O)c1ccc(NS(=O)(=O)c2cnc(Cl)c(Br)c2)cc1O [Example 14, Methyl 4-{[(5-bromo-6-chloropyridin-3-yl)sulfonyl]amino}-2-hydroxybenzoate] | 5.72 |
| COC(=O)c1ccc(NS(=O)(=O)c2ccc(C(F)(F)F)cc2)cc1O [Example 16, Methyl 2-hydroxy-4-({[4-(trifluoromethyl)phenyl]sulfonyl}amino)benzoate] | 5.34 |
| COC(=O)c1ccc(NS(=O)(=O)c2cc(Cl)cc(Cl)c2)cc1O [Example 22, Methyl 4-{[(3,5-dichlorophenyl)sulfonyl]amino}-2-hydroxybenzoate] | 5.77 |
| COC(=O)c1ccc(NS(=O)(=O)Cc2ccc(Br)cc2)cc1O [Example 24, Methyl 4-{[(4-bromobenzyl)sulfonyl]amino}-2-hydroxybenzoate] | 4.98 |
| COC(=O)c1ccc(NS(=O)(=O)c2cc(Cl)sc2Cl)cc1O [Example 25, Methyl 4-{[(2,5-dichloro-3-thienyl)sulfonyl]amino}-2-hydroxybenzoate] | 5.64 |
| COC(=O)c1ccc(NS(=O)(=O)c2ccc(F)c(Cl)c2)cc1O [Example 32, Methyl 4-{[(3-chloro-4-fluorophenyl)sulfonyl]amino}-2-hydroxybenzoate] | 5.32 |
| COC(=O)c1ccc(NS(=O)(=O)c2ccc(F)c3ccccc23)cc1O [Example 33, Methyl 4-{[(4-fluoro-1-naphthyl)sulfonyl]amino}-2-hydroxybenzoate] | 5.44 |
| COC(=O)c1ccc(NS(=O)(=O)c2cccc3c(N(C)C)cccc23)cc1O [Example 40, Methyl 4-({[5-(dimethylamino)naphthalen-1-yl]sulfonyl}amino)-2-hydroxybenzoate trifluoroacetate] | 5.68 |
| COC(=O)c1ccc(NS(=O)(=O)c2ccc(CNC(=O)c3ccccc3)s2)cc1O [Example 41, Methyl 2-hydroxy-4-{[(5-{[(phenylcarbonyl)amino]methyl}thiophen-2-yl)sulfonyl]amino}benzoate] | 4.72 |
| COC(=O)c1ccc(NS(=O)(=O)c2cccc(OC(F)(F)F)c2)cc1O [Example 44, Methyl 2-hydroxy-4-({[3-(trifluoromethoxy)phenyl]sulfonyl}amino)benzoate] | 5.24 |
| COC(=O)c1ccc(NS(=O)(=O)c2cc(Br)c(F)cc2F)cc1O [Example 49, Methyl 4-{[(5-bromo-2,4-difluorophenyl)sulfonyl]amino}-2-hydroxybenzoate] | 5.24 |
| COC(=O)c1ccc(NS(=O)(=O)c2csc3ccccc23)cc1O [Example 52, Methyl 4-[(1-benzothien-3-ylsulfonyl)amino]-2-hydroxybenzoate] | 4.97 |
| COC(=O)c1ccc(NS(=O)(=O)c2c(Cl)sc(Cl)c2C)cc1O [Example 53, Methyl 4-{[(2,5-dichloro-4-methyl-3-thienyl)sulfonyl]amino}-2-hydroxybenzoate] | 5.51 |
| COC(=O)c1ccc(NS(=O)(=O)c2scc(Br)c2Br)cc1O [Example 57, Methyl 4-{[(3,4-dibromothiophen-2-yl)sulfonyl]amino}-2-hydroxybenzoate] | 5.24 |
| COC(=O)c1ccc(NS(=O)(=O)c2cc(C)c(Br)s2)cc1O [Example 58, Methyl 4-{[(5-bromo-4-methylthiophen-2-yl)sulfonyl]amino}-2-hydroxybenzoate] | 5.25 |
| O=C(OCCn1cccc1)c1ccc(NS(=O)(=O)c2cc(Cl)c(Cl)s2)cc1O [Example 61, 2-(1H-Pyrrol-1-yl)ethyl 4-{[(4,5-dichlorothiophen-2-yl)sulfonyl]amino}-2-hydroxybenzoate] | 6.22 |
| O=C(OCCCN1CCOCC1)c1ccc(NS(=O)(=O)c2cc(Cl)c(Cl)s2)cc1O [Example 63, 3-Morpholin-4-ylpropyl 4-{[(4,5-dichlorothiophen-2-yl)sulfonyl]amino}-2-hydroxybenzoate trifluoroacetate] | 5.40 |
| CCOCCOC(=O)c1ccc(NS(=O)(=O)c2cc(Cl)sc2Cl)cc1O [Example 66, 2-Ethoxyethyl 4-{[(2,5-dichloro-3-thienyl)sulfonyl]amino}-2-hydroxybenzoate] | 5.24 |
| O=C(OC1CCOC1)c1ccc(NS(=O)(=O)c2cc(Cl)sc2Cl)cc1O (stereo not shown) [Example 67, Tetrahydrofuran-3-yl 4-{[(2,5-dichloro-3-thienyl)sulfonyl]amino}-2-hydroxybenzoate] | 5.28 |
| CCCCOC(=O)c1ccc(NS(=O)(=O)c2cc(Cl)c(Cl)s2)cc1O [Example 70, Butyl 4-{[(4,5-dichloro-2-thienyl)sulfonyl]amino}-2-hydroxybenzoate] | 6.70 |

Same assay, conditions: at 12.5-50 μM in PANC-1 cells

| SMILES | inhibition (F-2,6-P2 levels) [%] |
| --- | --- |
| COC(=O)c1ccc(NS(=O)(=O)Cc2cccc(Br)c2)cc1O [Example 23, Methyl 4-{[(3-bromobenzyl)sulfonyl]amino}-2-hydroxybenzoate] | ≥ 50 |
| COC(=O)c1ccc(NS(=O)(=O)c2cccc(OC(F)F)c2)cc1O [Example 31, Methyl 4-({[3-(difluoromethoxy)phenyl]sulfonyl}amino)-2-hydroxybenzoate] | ≥ 50 |
| COC(=O)c1ccc(NS(=O)(=O)c2ccc(-c3ccccc3)cc2)cc1O [Example 35, Methyl 4-[(biphenyl-4-ylsulfonyl)amino]-2-hydroxybenzoate] | ≥ 50 |
| COC(=O)c1ccc(NS(=O)(=O)c2ccc(C(C)(C)C)cc2)cc1O [Example 36, Methyl 4-{[(4-tert-butylphenyl)sulfonyl]amino}-2-hydroxybenzoate] | ≥ 50 |
| COC(=O)c1ccc(NS(=O)(=O)c2ccc(Cl)cc2)cc1O [Example 42, Methyl 4-{[(4-chlorophenyl)sulfonyl]amino}-2-hydroxybenzoate] | ≥ 50 |
| COC(=O)c1ccc(NS(=O)(=O)c2c(C)cccc2Cl)cc1O [Example 43, Methyl 4-{[(2-chloro-6-methylphenyl)sulfonyl]amino}-2-hydroxybenzoate] | ≥ 50 |
| O=C(O)C(F)(F)F.O=C(OCCCn1ccnc1)c1ccc(NS(=O)(=O)c2cc(Cl)c(Cl)s2)cc1O [Example 64, 3-(1H-Imidazol-1-yl)propyl 4-{[(4,5-dichlorothiophen-2-yl)sulfonyl]amino}-2-hydroxybenzoate trifluoroacetate] | ≥ 50 |
| CN1CCN(CCCOC(=O)c2ccc(NS(=O)(=O)c3cc(Cl)c(Cl)s3)cc2O)CC1.O=C(O)C(F)(F)F [Example 65, 3-(4-Methylpiperazin-1-yl)propyl 4-{[(4,5-dichlorothiophen-2-yl)sulfonyl]amino}-2-hydroxybenzoate trifluoroacetate] | ≥ 50 |
